Data on eight compounds can be found in patent US9499485B2, “Compounds that are S1P modulating agents and/or ATX modulating agents” (BIOGEN MA INC., priority 2012, dated 2016).

The target of assay [1] is T1, Human ATX protein (Homo sapiens, UniProt Q13822).
T1 construct: made in house
Briefly: ATX biochemical FRET assay with FS-3 substrate. Conditions: FS-3 2 μM, ATX 1.0 μg/mL, binned table, read-out: IC50 (μm). From the text: ATX (Autotaxin) is a 125 KDa glycoprotein with lysophospholipase D (LPLD) activity that generates the bioactive lipid lysophosphatidic acid (LPA) from lysophosphatidylcholine (LPC). The ATX biochemical assay utilizes a FRET (fluorescence resonance energy transfer) technology platform. The fluorescence signal of FRET substrate FS-3 is quenched due to intra-molecular FRET of a fluorophore to a non-fluorescing quencher (Ferguson, C. G., et al., Org. Lett. 2006 May 11; 8(10): 2023-2026, which is incorporated by reference in its entirety). ATX catalyzes the hydrolysis of the substrate which separates the dabsyl quencher from the fluorescein reporter, which becomes fluorescent. The reaction is monitored by a SpectraMax M5 (Molecular Devices, Sunnyvale, Calif.) with at excitation wavelength 485 nm and emission wavelength 535 nm.
2×ATX assay buffer: 100 mM Tris, 280 mM NaCl, 10 mM KCl, 2 mM CaCl2, 2 mM MgCl2, pH 7.4.
Human ATX protein: expressed and purified in house. Stored at −80° C.
Substrate FS-3 (Echelon, L-2000): 100 μg in 77.74 μL H2O (1 mM stock), stored at −20° C.
Compound dilution—All compounds were provided at 10 mM in 100% DMSO. In the first well, 2 μL of 10 mM compound was added to 78 μL of DMSO (1:40 dilution). In subsequent wells 3-fold dilution (total 10 dilutions) were performed.
1×ATX assay buffer was made up with a final concentration of 1 mg/mL fatty acid free-BSA using 2×ATX assay buffer, 10 mg/ml fatty acid free-BSA and ddH2O.
ATX protein was diluted with 1×ATX assay buffer to a concentration of 1.32 μg/mL (1.32×). 38 μL was added per well to the assay plate. The final concentration of ATX in the reaction as 1.0 μg/mL.
2 μL per well of compounds was transferred to provide the desired concentration. The plate was centrifuged, then incubated at room temperature for 30 minutes on the shaker.
FS-3 was diluted with 1×ATX assay buffer to a concentration of FS-3 of 10 μM (5×). Then, 10 μL was added per well to the assay plate. The final concentration of FS-3 in the reaction was 2 μM. The plate was centrifuged. The plate was kept shaking at room temperature for 2 hours. Because FS-3 substrate is light sensitive, plates were kept covered and protected from light.
Fluorescence was measured using SpectraMax M5 (excitation at 485 nm/emission at 538 nm, top read).

Assay [2] addresses T2, human S1P4 (Homo sapiens, UniProt O95977).
T2 construct: host or cells: recombinant CHEM cells
T2 sequence (O95977 1-384): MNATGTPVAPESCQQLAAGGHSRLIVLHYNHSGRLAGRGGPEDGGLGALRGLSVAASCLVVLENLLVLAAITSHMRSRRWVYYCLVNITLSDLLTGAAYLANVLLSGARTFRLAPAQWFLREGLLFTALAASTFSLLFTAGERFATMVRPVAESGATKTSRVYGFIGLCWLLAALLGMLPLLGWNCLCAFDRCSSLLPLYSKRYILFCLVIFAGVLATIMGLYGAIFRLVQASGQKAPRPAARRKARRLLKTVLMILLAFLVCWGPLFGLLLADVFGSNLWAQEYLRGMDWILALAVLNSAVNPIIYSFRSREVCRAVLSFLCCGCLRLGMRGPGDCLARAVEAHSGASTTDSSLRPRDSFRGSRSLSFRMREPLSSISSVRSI
Briefly: S1P receptor calcium flux assay, antagonist format (S1P4 antagonist activity). Format: cell-based. Conditions: calcium mobilization, recombinant CHEM cells expressing human S1P4, stimulated with EC80 of reference agonist. Here is the method:
Compounds that are not specific for a particular S1P receptor can cause undesirable side effects. Accordingly, compounds are tested to identify those that are specific. Accordingly, the test compounds are tested in a calcium mobilization assay/S1P receptor activity assay. The procedure is essentially as described in Davis et al. (2005) Journal of Biological Chemistry, vol. 280, pp. 9833-9841, which is incorporated by reference in its entirety with the following modifications. Calcium mobilization assays are performed in recombinant CHEM cells expressing human S1P1, S1P2, S1P3, S1P4, or S1P5 purchased from Millipore (Billerica, Mass.). To detect free intracellular calcium, S1P1, S1P2, S1P3, S1P4, or S1P5 cells are loaded with FLIPR Calcium 4 dye from Molecular Devices (Sunnyvale, Calif.). Cells are imaged for calcium mobilization using a FLIPR^TETRA equipped with a 96-well dispense head.
Agonist percentage activation determinations were obtained by assaying sample compounds and referencing the Emax control for each receptor profiled. Antagonist percentage inhibition determinations were obtained by assaying sample compounds and referencing the control EC80 wells for each receptor profiled.
Sample compounds were plated in an eight-point, four-fold dilution series in duplicate with a top concentration of 10 μM. The concentrations described here reflect the final concentration of the compounds during the antagonist assay. During the agonist assay the compound concentrations were 1.25 fold higher to allow for the final desired concentration to be achieved with further dilution by EC80 of reference agonists during the antagonist assay.
Reference agonists were handled as mentioned above serving as assay control. The reference agonists were handled as described above for Emax.
Assay was read for 180 seconds using the FLIPR^TETRA (This assay run added sample compounds and reference agonist to respective wells). At the completion of the first “Single Addition” assay run, assay plate was removed from the FLIPR^TETRA and placed at 25° C. for seven (7) minutes.
Using the EC80 values determined during the agonist assay, stimulated all pre-incubated sample compound and reference antagonist (if applicable) wells with EC80 of reference agonist. Read for 180 seconds using the FLIPR^TETRA (This assay added reference agonist to respective wells—then fluorescence measurements were collected to calculate percentage inhibition values).
(Calcium flux is commonly read through the fluorescence of an indicator in the cells.)

With `O=C(O)C1CC2CCCC(C1)N2Cc1cccc2ccc(O[C@H]3CC[C@@H](C(F)(F)F)CC3)c(C(F)(F)F)c12` (stereo partly drawn) [Example 27, 9-((8-(trifluoromethyl)-7-((cis-4-(trifluoromethyl)cyclohexyl)oxy)naphthalen-1-yl)methyl)-9-azabicyclo[3.3.1]nonane-3-carboxylic acid], the IC50 (usually the concentration needed to halve the response being measured) in assay [1] is 0.5 to 5 µM.

For `O=C(O)C[C@H]1CCCN(Cc2cccc3ccc(O[C@H]4CC[C@@H](C(F)(F)F)CC4)c(C(F)(F)F)c23)C1` [Example 28, 2-((R)-1-((8-(trifluoromethyl)-7-((cis-4-(trifluoromethyl)cyclohexyl)oxy)naphthalen-1-yl)methyl)piperidin-3-yl)acetic acid], the IC50 in assay [1] is 0.5 to 5 µM.

`CC(C)(C)[C@H]1CC[C@H](Oc2ccc3cccc(CN4CCC(C(=O)O)CC4)c3c2)CC1` [Example 29, 1-((7-((trans-4-(tert-butyl)cyclohexyl)oxy)naphthalen-1-yl)methyl)piperidine-4-carboxylic acid]: the IC50 in assay [2] was not above 5 µM; in assay [1], more than 5 µM.

Turning to `CCCCCCCOc1ccc2cccc(CN3CCC(C(=O)O)CC3)c2c1` [Example 30, 1-((7-(heptyloxy)naphthalen-1-yl)methyl)piperidine-4-carboxylic acid], the IC50 is not above 5 µM in assay [2] and more than 5 µM in assay [1].

In the case of `CC(C)(C)[C@H]1CC[C@H](Oc2ccc3c(CN4CCC(C(=O)O)CC4)cccc3c2)CC1` [Example 31, 1-((6-((trans-4-(tert-butyl)cyclohexyl)oxy)naphthalen-1-yl)methyl)piperidine-4-carboxylic acid], the IC50 in assay [2] is not above 5 µM.

As for `CCCCCCCOc1ccc2c(CN3CCC(C(=O)O)CC3)cccc2c1` [Example 32, 1-((6-(heptyloxy)naphthalen-1-yl)methyl)piperidine-4-carboxylic acid], the figures for the IC50 in assay [2] and in assay [1] were not above 5 µM and more than 5 µM, respectively.

For `CC(C)(C)[C@H]1CC[C@H](Oc2ccc3c(CN4CCC(CC(=O)O)CC4)cccc3c2)CC1` [Example 33, 2-(1-((6-((trans-4-(tert-butyl)cyclohexyl)oxy)naphthalen-1-yl)methyl)piperidin-4-yl)acetic acid], the results for the IC50 in assay [2] and in assay [1] were not above 5 µM and more than 5 µM, respectively.

On to `CCCCCCCOc1ccc2c(CN3CCC(CC(=O)O)CC3)cccc2c1` [Example 34, 2-(1-((6-(heptyloxy)naphthalen-1-yl)methyl)piperidin-4-yl)acetic acid], for which the IC50 in assay [2] was not above 5 µM; in assay [1], more than 5 µM.
